Results reported in ChEMBL document CHEMBL5726465, “Therapeutic compounds” (2019).
pIC50: −log10 of the molar value.

molecular target: CREB-binding protein (Homo sapiens, UniProt Q92793); assay: In Vitro Enzyme Inhibition Assay-CREBBP Inhibition: Determination of the IC50 for the CREBBP inhibitors disclosed herein was performed as follows: CREBBP was cloned and expressed in E. Coli as His-tag protein and purified by Nickel affinity and gel-filtration chromatography. The protein was further characterized as a single band with the correct molecular weight by SDS-PAGE. CREBBP binding and inhibition was assessed by monitoring the interaction of biotinylated H4-tetraacetyl peptide (AnaSpec, H4K5/8/12/16(Ac), biotin-labeled) with the target using the AlphaScreen technology (Perkin Elmer). In a 384-well ProxiPlate CREBBP (50 nM final) was combined with peptide (20 nM final) in 50 mM HEPES (pH 7.3), 10 mM NaCl, 0.25 mM TCEP, 0.1% (w/v) BSA, and 0.005% (w/v) Brij-35 either in the presence of DMSO (final 0.4% DMSO) or compound dilution series in DMSO. After 20-minute incubation at room temperature, Alpha streptavidin donor beads and Nickel Chelate acceptor beads were added to a final concentration of 5 μg/mL. After two hours of equilibration, plates were read on an Envision instrument and the IC50 was calculated using a four parameter non-linear curve fit.The ability of the compounds disclosed herein to inhibit CBP activity was quantified and the respective IC50 value was determined.
Sequence (Q92793 whole entry): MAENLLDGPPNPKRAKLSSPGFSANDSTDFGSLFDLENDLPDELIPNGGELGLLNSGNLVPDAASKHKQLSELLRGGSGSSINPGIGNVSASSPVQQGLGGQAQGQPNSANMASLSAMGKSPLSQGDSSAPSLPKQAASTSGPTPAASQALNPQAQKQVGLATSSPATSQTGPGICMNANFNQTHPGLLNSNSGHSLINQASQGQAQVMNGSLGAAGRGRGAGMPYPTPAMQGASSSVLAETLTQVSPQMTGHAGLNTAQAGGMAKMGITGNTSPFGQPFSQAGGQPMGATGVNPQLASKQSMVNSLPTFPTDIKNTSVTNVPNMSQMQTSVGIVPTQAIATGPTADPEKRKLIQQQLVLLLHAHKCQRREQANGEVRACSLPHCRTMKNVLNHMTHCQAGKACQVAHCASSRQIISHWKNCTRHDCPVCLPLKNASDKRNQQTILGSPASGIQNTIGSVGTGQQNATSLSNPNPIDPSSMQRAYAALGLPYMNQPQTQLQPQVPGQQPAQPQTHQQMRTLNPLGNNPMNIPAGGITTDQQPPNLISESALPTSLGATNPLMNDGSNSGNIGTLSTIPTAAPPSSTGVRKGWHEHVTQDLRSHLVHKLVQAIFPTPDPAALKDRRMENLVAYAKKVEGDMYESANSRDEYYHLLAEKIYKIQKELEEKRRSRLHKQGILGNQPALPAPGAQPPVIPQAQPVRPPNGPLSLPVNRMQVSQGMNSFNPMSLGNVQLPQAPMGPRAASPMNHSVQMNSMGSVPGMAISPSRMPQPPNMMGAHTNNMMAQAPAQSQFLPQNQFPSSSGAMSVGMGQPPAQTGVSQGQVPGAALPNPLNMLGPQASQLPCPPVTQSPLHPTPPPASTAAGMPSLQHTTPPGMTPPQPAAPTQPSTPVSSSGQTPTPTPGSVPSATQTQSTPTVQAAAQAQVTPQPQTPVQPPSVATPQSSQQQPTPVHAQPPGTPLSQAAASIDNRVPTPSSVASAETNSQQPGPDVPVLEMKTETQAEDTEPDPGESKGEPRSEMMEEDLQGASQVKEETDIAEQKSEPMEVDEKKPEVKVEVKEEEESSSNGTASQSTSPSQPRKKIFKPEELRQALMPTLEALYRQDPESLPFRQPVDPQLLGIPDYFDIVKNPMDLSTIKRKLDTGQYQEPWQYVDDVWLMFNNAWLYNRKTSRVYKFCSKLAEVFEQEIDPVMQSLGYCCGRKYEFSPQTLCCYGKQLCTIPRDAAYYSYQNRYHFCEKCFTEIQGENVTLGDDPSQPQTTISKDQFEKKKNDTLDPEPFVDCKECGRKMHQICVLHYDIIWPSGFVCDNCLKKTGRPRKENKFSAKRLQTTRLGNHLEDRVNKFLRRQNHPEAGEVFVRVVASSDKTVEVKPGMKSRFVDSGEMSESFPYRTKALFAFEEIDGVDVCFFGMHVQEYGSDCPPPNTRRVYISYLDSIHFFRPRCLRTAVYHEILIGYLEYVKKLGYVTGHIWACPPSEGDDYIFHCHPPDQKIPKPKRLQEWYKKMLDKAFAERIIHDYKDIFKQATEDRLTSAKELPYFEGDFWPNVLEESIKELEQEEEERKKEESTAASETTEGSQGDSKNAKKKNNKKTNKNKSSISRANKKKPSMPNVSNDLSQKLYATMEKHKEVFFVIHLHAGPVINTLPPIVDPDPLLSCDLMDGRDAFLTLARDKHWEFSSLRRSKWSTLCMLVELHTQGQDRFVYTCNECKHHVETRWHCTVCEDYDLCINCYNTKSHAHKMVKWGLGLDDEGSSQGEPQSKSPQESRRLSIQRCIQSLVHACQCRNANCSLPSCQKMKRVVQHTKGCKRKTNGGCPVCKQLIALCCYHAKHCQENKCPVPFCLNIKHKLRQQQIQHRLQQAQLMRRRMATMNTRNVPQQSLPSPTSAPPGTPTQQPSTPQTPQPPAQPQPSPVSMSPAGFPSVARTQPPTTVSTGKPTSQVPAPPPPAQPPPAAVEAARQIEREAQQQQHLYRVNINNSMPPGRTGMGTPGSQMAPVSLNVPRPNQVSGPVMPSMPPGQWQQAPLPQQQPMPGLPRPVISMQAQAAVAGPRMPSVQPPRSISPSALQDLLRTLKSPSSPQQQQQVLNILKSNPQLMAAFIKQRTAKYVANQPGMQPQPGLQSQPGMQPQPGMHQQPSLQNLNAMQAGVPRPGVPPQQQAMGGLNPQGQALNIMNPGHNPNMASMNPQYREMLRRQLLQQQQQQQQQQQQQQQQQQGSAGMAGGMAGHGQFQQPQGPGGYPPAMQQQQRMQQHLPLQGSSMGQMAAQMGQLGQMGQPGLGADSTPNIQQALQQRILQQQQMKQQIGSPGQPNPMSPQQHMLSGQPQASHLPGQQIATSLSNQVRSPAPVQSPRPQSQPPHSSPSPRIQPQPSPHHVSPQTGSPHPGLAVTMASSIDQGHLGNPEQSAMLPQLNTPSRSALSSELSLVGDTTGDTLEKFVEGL

| pIC50 | Compound |
| --- | --- |
| > 6.30 | Cc1cccc(F)c1Oc1nc(NS(=O)(=O)CCC2CC2)cc(-c2ccc(=O)n(C)c2)n1 |
| > 6.30 | Cc1cccc(F)c1Oc1nc(NS(=O)(=O)CCC(F)(F)F)cc(-c2ccc(=O)n(C)c2)n1 |
| > 6.30 | CCNc1cc(-c2cc(C)c(=O)n(C)c2)nc(Oc2ccc(F)cc2F)n1 |
| > 6.30 | CCCCS(=O)(=O)Nc1cc(-c2cc(Cl)c(=O)n(C)c2)nc(Oc2c(C)cccc2Cl)n1 |
| > 6.30 | Cc1cccc(Cl)c1Oc1nc(NS(=O)(=O)C(C)C)cc(-c2cc(Cl)c(=O)n(C)c2)n1 |
| > 6.30 | CCCCS(=O)(=O)Nc1nc(Oc2c(C)cccc2C)nc(-c2cc(C)c(=O)n(C)c2)n1 |
| > 6.30 | Cc1cccc(F)c1Oc1nc(NS(=O)(=O)CC2CC2)cc(-c2ccc(=O)n(C)c2)n1 |
